Key:
Prolyl endopeptidase = Prolyl endopeptidase (Sus scrofa, UniProt P23687); assay: Inhibition of recombinant porcine PREP expressed in Escherichia coli using Suc-Gly-Pro-AMC as substrate preincubated for 30 mins followed by substrate addition and measured after 60 mins by multilabel counter analysis
HEK293 = assay: Induction of autophagy in human HEK293 cells expressing GFP-LC3B-RFP assessed as decrease in fluorescence at 10 uM after 24 hrs by multilabel counter method; format: functional; design: scale not given: the % may be the effect or the level left

Chain of Prolyl endopeptidase (P23687 whole entry): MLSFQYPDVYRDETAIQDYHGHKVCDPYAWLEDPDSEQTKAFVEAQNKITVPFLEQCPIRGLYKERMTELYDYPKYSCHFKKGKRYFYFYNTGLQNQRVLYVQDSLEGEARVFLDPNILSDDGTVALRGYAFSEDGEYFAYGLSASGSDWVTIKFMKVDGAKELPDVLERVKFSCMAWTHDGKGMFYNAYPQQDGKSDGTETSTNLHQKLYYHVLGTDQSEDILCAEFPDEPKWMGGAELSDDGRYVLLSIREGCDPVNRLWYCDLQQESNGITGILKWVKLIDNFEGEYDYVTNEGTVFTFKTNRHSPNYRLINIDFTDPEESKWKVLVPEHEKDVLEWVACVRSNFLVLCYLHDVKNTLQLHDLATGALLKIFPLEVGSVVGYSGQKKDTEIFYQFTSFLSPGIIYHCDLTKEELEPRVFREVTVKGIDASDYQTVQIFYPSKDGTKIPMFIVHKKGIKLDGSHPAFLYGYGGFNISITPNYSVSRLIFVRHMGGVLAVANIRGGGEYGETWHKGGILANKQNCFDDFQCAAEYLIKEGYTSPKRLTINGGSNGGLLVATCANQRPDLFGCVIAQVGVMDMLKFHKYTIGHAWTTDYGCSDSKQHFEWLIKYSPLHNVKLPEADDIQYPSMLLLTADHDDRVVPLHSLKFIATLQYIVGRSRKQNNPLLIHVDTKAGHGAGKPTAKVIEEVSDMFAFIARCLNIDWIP

| SMILES | IC50 (Prolyl endopeptidase) | Activity (HEK293) |
| --- | --- | --- |
| N#C[C@@H]1CCCN1C(=O)[C@@H]1CCCN1C(=O)CCCc1ccccc1 | – | 89% |
| O=C(CCCc1ccccc1)N1CCC[C@H]1C(=O)N1CCC[C@H]1c1ccn[nH]1 | 70 µM | – |
| C[C@H](NC(=O)CCCc1ccccc1)C(=O)N1CCC[C@H]1c1nnc[nH]1 | 55 µM | – |
| CN(CC(=O)N1CCC[C@H]1c1nnn[nH]1)C(=O)CCc1ccccc1 | 62 µM | – |

Now from value to compound, other results behind:

| IC50 (Prolyl endopeptidase) | SMILES | Activity (HEK293) |
| --- | --- | --- |
| 12 µM | Cn1nnc([C@@H]2CCCN2C(=O)[C@@H]2CCCN2C(=O)CCCc2ccccc2)n1 | – |
| 29 µM | O=C(CCCc1ccccc1)N1CCC[C@H]1C(=O)N1CCC[C@H]1c1nnc[nH]1 | – |
